Source: PubChem BioAssay AID2060606 (Molecular Pharmacology Branch, DTP, NCI, 2025)

System: 922993-354-T-J3-PDC complex spheroids, viability, % test/control
Test: Anticancer human tumor 922993-354-T-J3-PDC patient-derived endometrial carcinoma cell line growth inhibition [CLK]
Conditions: for IC50: curve of first compound; for viability, T/C: stronger effect = lower value
Summary of the method: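 Multi-cell-type spheroids combined patient-derived tumor cells with HUVEC endothelial cells and human mesenchymal stem cells. Paired agents were dosed in half-log steps down from about clinical Cmax, or from 10 microM where Cmax was unknown.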
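Also: spheroids exposed to the agents for 7 days before readout.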

Q: With `C=CC(=O)Nc1cc(Nc2nccc(-c3cn(C)c4ccccc34)n2)c(OC)cc1N(C)CCN(C)C` + CN1CCN(c2cc(C(=O)Nc3cc4cc(-c5cnn(C)c5)ccc4cn3)ccn2)CC1 as the molecule, how does the IC50 (second compound 0.0316 µM) read?
A: Its IC50 is greater than 300 nM.

Q: What about the IC50 (second compound 0.1 µM) of the same molecule?
A: The IC50 was greater than 300 nM.

Q: And the IC50 (second compound 0.316 µM)?
A: Its IC50 is less than 0.949 nM.

Q: And the IC50 (second compound 1 µM)?
A: Its IC50 is less than 0.949 nM.

Q: And the IC50 (second compound 3.16 µM)?
A: Its IC50 is less than 0.949 nM.

Q: And the IC50 (second compound 10 µM)?
A: The IC50 was less than 0.949 nM.

Q: What about the viability, T/C (second compound 0.0316 µM, first compound 0.000949 µM) of the same molecule?
A: The viability, T/C was 98.9%.

Q: What about the viability, T/C (second compound 0.0316 µM, first compound 0.003 µM) of the same molecule?
A: Its viability, T/C is 98.4%.

Q: What about the viability, T/C (second compound 0.0316 µM, first compound 0.00949 µM) of the same molecule?
A: Its viability, T/C is 101%.

Q: What about the viability, T/C (second compound 0.0316 µM, first compound 0.03 µM) of the same molecule?
A: The viability, T/C was 108%.

Q: What about the viability, T/C (second compound 0.0316 µM, first compound 0.0949 µM) of the same molecule?
A: The viability, T/C was 97.4%.

Q: And the viability, T/C (second compound 0.0316 µM, first compound 0.3 µM)?
A: Its viability, T/C is 73.1%.

Q: What about the viability, T/C (second compound 0.1 µM, first compound 0.000949 µM) of the same molecule?
A: The viability, T/C was 96.7%.

Q: What about the viability, T/C (second compound 0.1 µM, first compound 0.003 µM) of the same molecule?
A: The viability, T/C was 97.7%.

Q: What about the viability, T/C (second compound 0.1 µM, first compound 0.00949 µM) of the same molecule?
A: Its viability, T/C is 83.7%.

Q: What about the viability, T/C (second compound 0.1 µM, first compound 0.03 µM) of the same molecule?
A: Its viability, T/C is 69%.

Q: What about the viability, T/C (second compound 0.1 µM, first compound 0.0949 µM) of the same molecule?
A: The viability, T/C was 81%.

Q: What about the viability, T/C (second compound 0.1 µM, first compound 0.3 µM) of the same molecule?
A: Its viability, T/C is 63.3%.

Q: And the viability, T/C (second compound 0.316 µM, first compound 0.000949 µM)?
A: The viability, T/C was 41.8%.

Q: What about the viability, T/C (second compound 0.316 µM, first compound 0.003 µM) of the same molecule?
A: The viability, T/C was 45.5%.

Q: What about the viability, T/C (second compound 0.316 µM, first compound 0.00949 µM) of the same molecule?
A: The viability, T/C was 44.2%.

Q: And the viability, T/C (second compound 0.316 µM, first compound 0.03 µM)?
A: The viability, T/C was 22.8%.

Q: And the viability, T/C (second compound 0.316 µM, first compound 0.0949 µM)?
A: Its viability, T/C is 31.7%.

Q: And the viability, T/C (second compound 0.316 µM, first compound 0.3 µM)?
A: Its viability, T/C is 27.8%.

Q: What about the viability, T/C (second compound 1 µM, first compound 0.000949 µM) of the same molecule?
A: Its viability, T/C is 0.12%.

Q: What about the viability, T/C (second compound 1 µM, first compound 0.003 µM) of the same molecule?
A: Its viability, T/C is 0.13%.

Q: What about the viability, T/C (second compound 1 µM, first compound 0.00949 µM) of the same molecule?
A: Its viability, T/C is 1.12%.

Q: And the viability, T/C (second compound 1 µM, first compound 0.03 µM)?
A: The viability, T/C was 0.1%.

Q: And the viability, T/C (second compound 1 µM, first compound 0.0949 µM)?
A: The viability, T/C was 0.1%.

Q: What about the viability, T/C (second compound 1 µM, first compound 0.3 µM) of the same molecule?
A: The viability, T/C was 1.55%.

Q: And the viability, T/C (second compound 3.16 µM, first compound 0.000949 µM)?
A: The viability, T/C was 0.11%.

Q: What about the viability, T/C (second compound 3.16 µM, first compound 0.003 µM) of the same molecule?
A: Its viability, T/C is 0.14%.

Q: And the viability, T/C (second compound 3.16 µM, first compound 0.00949 µM)?
A: Its viability, T/C is 0.14%.

Q: What about the viability, T/C (second compound 3.16 µM, first compound 0.03 µM) of the same molecule?
A: Its viability, T/C is 0.7%.

Q: What about the viability, T/C (second compound 3.16 µM, first compound 0.0949 µM) of the same molecule?
A: The viability, T/C was 0.13%.

Q: What about the viability, T/C (second compound 3.16 µM, first compound 0.3 µM) of the same molecule?
A: Its viability, T/C is 1.62%.

Q: What about the viability, T/C (second compound 10 µM, first compound 0.000949 µM) of the same molecule?
A: The viability, T/C was 0.15%.

Q: And the viability, T/C (second compound 10 µM, first compound 0.003 µM)?
A: The viability, T/C was 0.17%.

Q: What about the viability, T/C (second compound 10 µM, first compound 0.00949 µM) of the same molecule?
A: Its viability, T/C is 1.16%.

Q: What about the viability, T/C (second compound 10 µM, first compound 0.03 µM) of the same molecule?
A: Its viability, T/C is 0.16%.

Q: What about the viability, T/C (second compound 10 µM, first compound 0.0949 µM) of the same molecule?
A: The viability, T/C was 1.05%.

Q: And the viability, T/C (second compound 10 µM, first compound 0.3 µM)?
A: Its viability, T/C is 0.62%.
